Consider ten compounds from PubChem BioAssay (NCI).

Among the test systems are CCRF-CEM leukemia; COLO 205 colon; HOP-92 NSCLC; LOX IMVI melanoma; OVCAR-5 ovarian; SK-OV-3 ovarian; TK-10 renal; UO-31 renal; DLD-1 colon; KM20L2 colon; LXFL 529 NSCLC.
Holding throughout (test): NCI anticancer screen, dose series, 48 h

Values joined by “and” are separate entries in the source; they are usually repeats but may differ in a detail not shown here. Identical values can stand only once.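 All cell lines were grown in 96-well plates and treated with compound for 48 hours. Here, GI50 denotes the concentration required for 50% inhibition of growth. TGI: concentration producing complete growth inhibition.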

As to `Cc1ccc(NC(=O)c2ccnc(C(F)(F)F)c2)cc1-c1cc(OCCO)nc(N2CCOCC2)c1`, the GI50 with CCRF-CEM leukemia was 3.33 µM; in the assay with COLO 205 colon it was 0.445 µM; in the assay on HOP-92 NSCLC, 0.196 µM; in the assay with LOX IMVI melanoma, 0.147 µM; with OVCAR-5 ovarian, 1.09 µM; with SK-OV-3 ovarian it was 6.39 µM. Besides, the GI50 in the assay on TK-10 renal was 6.66 µM; in the assay with UO-31 renal it was 0.495 µM. Moreover, the TGI was more than 100 µM in the assay with CCRF-CEM leukemia; 11.8 µM in the assay on COLO 205 colon; 4.78 µM in the assay with HOP-92 NSCLC; 4.26 µM with LOX IMVI melanoma; 28.3 µM in the assay on OVCAR-5 ovarian; more than 100 µM with SK-OV-3 ovarian. Further, the figures for the TGI with TK-10 renal and in the assay on UO-31 renal were more than 100 µM and 13.1 µM, respectively.

Consider `CCCCCC(=O)N1c2ccccc2NC2=C(C(=O)CC(c3ccc(OC)c(OC)c3)C2)C1c1ccc(C(F)(F)F)cc1` (configuration not stated), for which the GI50 is more than 100 µM in the assay with CCRF-CEM leukemia; more than 100 µM in the assay on COLO 205 colon; 12.2 µM with HOP-92 NSCLC; more than 100 µM in the assay with LOX IMVI melanoma; more than 100 µM with OVCAR-5 ovarian; more than 100 µM with SK-OV-3 ovarian. For the same compound, the GI50 in the assay on TK-10 renal is more than 100 µM; with UO-31 renal, 42.5 µM. Further, the TGI in the assay on CCRF-CEM leukemia, in the assay on COLO 205 colon, in the assay on HOP-92 NSCLC, in the assay on LOX IMVI melanoma, with OVCAR-5 ovarian and in the assay on SK-OV-3 ovarian was more than 100 µM throughout. The TGI in the assay with TK-10 renal and with UO-31 renal was more than 100 µM each time.

With `O=[N+]([O-])c1cccc(-c2nc3sccn3c2-c2ccnc(NCCCNS(=O)(=O)c3ccc(F)cc3)n2)c1`, the GI50 with CCRF-CEM leukemia was 1.2 µM; with COLO 205 colon it was 2.44 µM; in the assay with HOP-92 NSCLC, 1.74 µM; in the assay on LOX IMVI melanoma, 2.57 µM; in the assay with OVCAR-5 ovarian it was 5.63 µM; in the assay with SK-OV-3 ovarian, 4.17 µM. Further, the values for the GI50 in the assay with TK-10 renal and with UO-31 renal were 4.34 µM and 1.4 µM, respectively. Also, the TGI in the assay on CCRF-CEM leukemia is 7.81 µM; in the assay with COLO 205 colon it was 8.24 µM; in the assay with HOP-92 NSCLC, more than 100 µM; in the assay on LOX IMVI melanoma, 10.4 µM; in the assay on OVCAR-5 ovarian, more than 100 µM; with SK-OV-3 ovarian it was more than 100 µM. Besides, the TGI was more than 100 µM with TK-10 renal and 8.39 µM in the assay on UO-31 renal.

In the case of `O=C(O)CC(Cc1ccc2c(c1)OCO2)C(=O)O` (configuration not stated), the TGI in the assay on CCRF-CEM leukemia, with COLO 205 colon, in the assay with HOP-92 NSCLC, in the assay with LOX IMVI melanoma, in the assay with OVCAR-5 ovarian and with SK-OV-3 ovarian was more than 100 µM throughout. Further, the TGI in the assay with TK-10 renal and in the assay with UO-31 renal was more than 100 µM in each case.

For `COC(=O)c1c2c(c(C)[n+]([O-])c1C)C(=O)C=C(NCc1ccc(Cl)cc1)C2=O`, the GI50 is 0.471 µM with CCRF-CEM leukemia; 0.278 µM with COLO 205 colon; 1.93 µM in the assay with HOP-92 NSCLC; 0.053 µM in the assay on LOX IMVI melanoma; 1.29 µM in the assay with OVCAR-5 ovarian; 1.85 µM in the assay with SK-OV-3 ovarian. The values for the GI50 with TK-10 renal and with UO-31 renal were 2.95 µM and 1.16 µM, respectively. In addition, the TGI in the assay with CCRF-CEM leukemia was determined as 4.2 µM; in the assay on COLO 205 colon, 0.963 µM; with HOP-92 NSCLC, 4.09 µM; with LOX IMVI melanoma, 1.6 µM; in the assay with OVCAR-5 ovarian it was 2.78 µM; in the assay with SK-OV-3 ovarian, 4.64 µM. For the same compound, the TGI in the assay with TK-10 renal is 8.2 µM; in the assay on UO-31 renal it was 2.66 µM.

For `CC[C@@]1(O)C(=O)NCc2c1cc1n(c2=O)Cc2cc3cc4c(cc3nc2-1)OCO4`, the GI50 in the assay on CCRF-CEM leukemia was less than 0.0128 µM; in the assay with COLO 205 colon, 22.7 µM; in the assay with HOP-92 NSCLC, 1.22 µM; in the assay on LOX IMVI melanoma, 0.296 µM; in the assay with OVCAR-5 ovarian it was 9.39 µM; in the assay on SK-OV-3 ovarian, 1.5 µM. Moreover, the GI50 is 69.9 µM in the assay with TK-10 renal and 1.48 µM in the assay with UO-31 renal. In addition, the TGI is 0.148 µM with CCRF-CEM leukemia; more than 100 µM in the assay on COLO 205 colon; more than 26.9 µM in the assay on HOP-92 NSCLC; 18.2 µM in the assay with LOX IMVI melanoma; more than 88.2 µM in the assay on OVCAR-5 ovarian; more than 82.2 µM in the assay on SK-OV-3 ovarian. The TGI was more than 100 µM in the assay on TK-10 renal and more than 33.1 µM with UO-31 renal.

Consider `COc1cc2c(cc1OCCCCCOc1cc(-c3ccc(F)cc3)nc(C)n1)N=C[C@@H]1CCCN1C2=O`, for which the TGI is more than 45.2 µM in the assay with CCRF-CEM leukemia; 7.64 µM in the assay with COLO 205 colon; 6.7 µM in the assay with HOP-92 NSCLC; 31 µM with LOX IMVI melanoma; more than 100 µM in the assay on OVCAR-5 ovarian; more than 78.8 µM in the assay with SK-OV-3 ovarian. Moreover, the TGI with TK-10 renal was more than 75.3 µM; in the assay on UO-31 renal, more than 59 µM. The GI50 in the assay on COLO 205 colon is 4.32 µM; in the assay with HOP-92 NSCLC, 0.376 µM; in the assay with LOX IMVI melanoma, 11.1 µM; with OVCAR-5 ovarian it was more than 100 µM; with SK-OV-3 ovarian, more than 51.6 µM; in the assay with TK-10 renal, more than 49.9 µM. Further, in the assay on UO-31 renal, the GI50 is more than 28.3 µM.

As to `COc1cc(N2CCC(N(C)C)CC2)ccc1Nc1ncc(Cl)c(Nc2ccccc2P(C)(C)=O)n1`, the TGI in the assay on CCRF-CEM leukemia was more than 100 µM; in the assay with COLO 205 colon it was 1.12 µM and 0.33 µM; with HOP-92 NSCLC, 0.918 µM; in the assay on LOX IMVI melanoma, 1.82 µM and 0.68 µM; in the assay with OVCAR-5 ovarian, 8.97 µM and > 10 µM; in the assay with SK-OV-3 ovarian, 2.01 µM and > 4.16 µM. For the same compound, the TGI in the assay on TK-10 renal is 3.02 µM and 2.62 µM; with UO-31 renal it was 4.73 µM and 4.59 µM. Further, the GI50 in the assay with COLO 205 colon is 0.252 µM and 0.0658 µM; in the assay on HOP-92 NSCLC, 0.0882 µM; in the assay with LOX IMVI melanoma, 0.394 µM and 0.175 µM; with OVCAR-5 ovarian, 0.351 µM and 0.198 µM; with SK-OV-3 ovarian, 0.517 µM and 0.43 µM; with TK-10 renal, 0.491 µM and 0.196 µM. The GI50 with UO-31 renal is 1.82 µM and 0.752 µM.

Take `COc1ncnc2c(NC3OC(CO)C(O)C3O)ncnc12` (configuration not stated): the TGI with CCRF-CEM leukemia was 1.57 µM; with COLO 205 colon, 7.54 µM; in the assay on DLD-1 colon, 33.7 µM; in the assay with HOP-92 NSCLC, 0.527 µM; in the assay on KM20L2 colon it was more than 100 µM; in the assay with LOX IMVI melanoma, 0.619 µM. Also, the TGI was 83.4 µM in the assay on LXFL 529 NSCLC; more than 35.6 µM with OVCAR-5 ovarian; more than 27.1 µM with SK-OV-3 ovarian; 5.97 µM with TK-10 renal; more than 21.9 µM in the assay with UO-31 renal.

Consider `CCCCCCC(C)CC(CCCCCC)NCCOC(=O)c1ccc([N+](=O)[O-])cc1` (configuration not stated), for which the TGI is 12.6 µM and 18.3 µM in the assay on CCRF-CEM leukemia; 17.9 µM and 12.8 µM with COLO 205 colon; 23.9 µM and 23 µM with HOP-92 NSCLC; 24.7 µM and 19.5 µM in the assay with LOX IMVI melanoma; > 100 µM and 50 µM in the assay on OVCAR-5 ovarian; 31.8 µM and 30.4 µM with SK-OV-3 ovarian. The TGI was 24.5 µM and 23.4 µM in the assay on TK-10 renal; 23.8 µM and 22.2 µM with UO-31 renal.
